In patent publication US8710043B2, “TRPM8 antagonists and their use in treatments” (Amgen Inc., priority 2011, dated 2014):

biological target: T1, human TRPM8 (Homo sapiens, UniProt Q7Z2W7); experiment: Luminescence readout assay for measuring intracellular calcium, icilin activation; format: cell-based; conditions: CHO cells expressing human TRPM8, aequorin luminescence, 1 μM icilin activation; read-out: hTRPM8 IC50
T1 construct: expressed in transfected cells; host or cells: Chinese hamster ovary (CHO) cells, T-REx tetracycline-inducible system, co-transfected with aequorin
How it was run: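 The read-out was luminescence reporting intracellular calcium, recorded by a CCD-based luminometer. Compounds were preincubated for 2.5 min before agonist challenge with 1 μM icilin. Human TRPM8 was expressed in a stable T-REx CHO line, induced with 0.5 μg/mL tetracycline the day before.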

T1 sequence (Q7Z2W7 whole entry): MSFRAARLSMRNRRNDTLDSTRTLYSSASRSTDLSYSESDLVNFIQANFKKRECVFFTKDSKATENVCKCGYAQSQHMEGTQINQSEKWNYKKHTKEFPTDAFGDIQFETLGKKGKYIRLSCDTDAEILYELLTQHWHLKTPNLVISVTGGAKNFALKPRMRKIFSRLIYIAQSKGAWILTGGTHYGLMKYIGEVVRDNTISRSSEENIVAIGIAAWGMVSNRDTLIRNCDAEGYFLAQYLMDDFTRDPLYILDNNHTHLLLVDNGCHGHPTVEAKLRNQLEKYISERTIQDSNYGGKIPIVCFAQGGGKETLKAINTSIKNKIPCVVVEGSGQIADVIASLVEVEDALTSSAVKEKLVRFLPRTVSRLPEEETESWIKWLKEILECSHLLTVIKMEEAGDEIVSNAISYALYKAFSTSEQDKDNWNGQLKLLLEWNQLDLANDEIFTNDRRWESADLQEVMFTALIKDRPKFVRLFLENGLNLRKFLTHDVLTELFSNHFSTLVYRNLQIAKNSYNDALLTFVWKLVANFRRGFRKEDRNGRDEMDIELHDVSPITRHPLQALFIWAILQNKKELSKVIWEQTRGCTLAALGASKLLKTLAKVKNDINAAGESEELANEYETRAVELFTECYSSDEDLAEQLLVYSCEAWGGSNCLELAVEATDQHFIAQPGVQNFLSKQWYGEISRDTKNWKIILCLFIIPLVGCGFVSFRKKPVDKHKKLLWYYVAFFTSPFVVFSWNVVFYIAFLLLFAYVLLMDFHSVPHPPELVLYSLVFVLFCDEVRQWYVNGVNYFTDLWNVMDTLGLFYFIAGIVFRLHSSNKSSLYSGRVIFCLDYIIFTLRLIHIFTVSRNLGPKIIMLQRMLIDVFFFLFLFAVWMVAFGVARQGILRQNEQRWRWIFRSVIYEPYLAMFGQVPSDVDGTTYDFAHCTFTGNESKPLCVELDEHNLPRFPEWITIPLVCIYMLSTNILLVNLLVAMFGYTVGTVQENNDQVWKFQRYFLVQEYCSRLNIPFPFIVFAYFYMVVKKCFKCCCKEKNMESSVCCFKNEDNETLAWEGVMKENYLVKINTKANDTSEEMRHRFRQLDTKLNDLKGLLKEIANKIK

In order of rising IC50:
1. O=C(N[C@@H](c1ccc(C(F)(F)F)cc1)c1ncccc1F)c1ccc2cn[nH]c2c1 [Example 166, (S)-N-((3-fluoropyridin-2-yl)(4-(trifluoromethyl)phenyl)methyl)-1H-indazole-6-carboxamide]  7.6 nM
2. CCn1cc(C(=O)N[C@@H](c2ccc(OC(F)(F)F)c(F)c2)c2ncccc2F)ccc1=O [Example 366, (S)-1-ethyl-N-((3-fluoro-4-(trifluoromethoxy)phenyl)(3-fluoropyridin-2-yl)methyl)-6-oxo-1,6-dihydropyridine-3-carboxamide]  9.7 nM
3. Cc1cccnc1[C@@H](NC(=O)c1ccc(=O)[nH]c1)c1ccc(OC(F)(F)F)c(F)c1 [Example 347, (S)-N-((3-fluoro-4-(trifluoromethoxy)phenyl)(3-methylpyridin-2-yl)methyl)-6-oxo-1,6-dihydropyridine-3-carboxamide]  10 nM
4. O=C(N[C@@H](c1ccc(C(F)(F)F)cc1)c1ncccc1F)c1ccc2nccn2c1 [Example 253, (S)-N-((3-fluoropyridin-2-yl)(4-(trifluoromethyl)phenyl)methyl)imidazo[1,2-a]pyridine-6-carboxamide 2,2,2-trifluoroacetate]  11.4 nM
5. CNC(=O)c1ccc(C(=O)N[C@@H](c2ccc(C(F)(F)F)cc2)c2ncccc2F)nc1 [Example 273, (S)—N^2-((3-Fluoropyridin-2-yl)(4-(trifluoromethyl)phenyl)-methyl)-N^5-methylpyridine-2,5-dicarboxamide 2,2,2-trifluoroacetate]  16.1 nM
6. COc1ccc(C(=O)N[C@@H](c2ccc(C(F)(F)F)cc2)c2ncccc2F)cc1 [Example 172, (S)-N-((3-fluoropyridin-2-yl)(4-(trifluoromethyl)phenyl)methyl)-4-methoxybenzamide]  18.1 nM
7. COc1ncccc1C(=O)N[C@@H](c1ccc(C(F)(F)F)cc1)c1ncccc1F [Example 47, (S)-N-((3-fluoropyridin-2-yl)(4-(trifluoromethyl)phenyl)methyl)-2-methoxynicotinamide]  20.1 nM
8. O=C(N[C@@H](c1ccc(Cl)c(Cl)c1)c1ncccc1C(F)(F)F)c1ccc2cccnc2c1 [Example 10]  20.5 nM
9. O=C(N[C@@H](c1ccc(C(F)(F)F)cc1)c1ncccc1F)c1c[nH]c(=O)c(Br)c1 [Example 368, (S)-5-bromo-N-((3-fluoropyridin-2-yl)(4-(trifluoromethyl)phenyl)methyl)-6-oxo-1,6-dihydropyridine-3-carboxamide]  21 nM
10. O=C(N[C@@H](c1ccc(C(F)(F)F)cc1)c1ncccc1F)c1c[nH]c2ncccc12 [Example 54, (S)-N-((3-fluoropyridin-2-yl)(4-(trifluoromethyl)phenyl)methyl)-1H-pyrrolo[2,3-b]pyridine-3-carboxamide]  23.1 nM
11. Cc1cccnc1[C@@H](NC(=O)c1ccc2[nH]c(=O)oc2c1)c1ccc(C(F)(F)F)cc1 [Example 313, (S)-N-((3-methylpyridin-2-yl)(4-(trifluoromethyl)phenyl)methyl)-2-oxo-2,3-dihydrobenzo[d]oxazole-6-carboxamide]  25.9 nM
12. O=C(N[C@@H](c1ccc(C(F)(F)F)cc1)c1ncccc1C(F)(F)F)c1ccc(Cl)cc1 [Example 185, (S)-4-chloro-N-((4-(trifluoromethyl)phenyl)(3-(trifluoromethyl)pyridin-2-yl)methyl)benzamide]  29 nM
13. O=C(N[C@@H](c1ccc(C(F)(F)F)cc1)c1ncccc1F)c1ccc(-c2nc(=O)o[nH]2)cc1 [Example 315, (S)-N-((3-fluoropyridin-2-yl)(4-(trifluoromethyl)phenyl)methyl)-4-(5-oxo-2,5-dihydro-1,2,4-oxadiazol-3-yl)benzamide]  36.3 nM
14. O=C(N[C@@H](c1ccc(OC(F)(F)F)c(F)c1)c1ncccc1F)c1cc2n(n1)CCCO2 [Example 355, (S)-N-((3-fluoro-4-(trifluoromethoxy)phenyl)(3-fluoropyridin-2-yl)methyl)-6,7-dihydro-5H-pyrazolo[5,1-b][1,3]oxazine-2-carboxamide]  38.5 nM
15. CN(C)c1cccc(C(=O)N[C@@H](c2ccc(C(F)(F)F)cc2)c2ncccc2C(F)(F)F)c1 [Example 186, (S)-3-(dimethylamino)-N-((4-(trifluoromethyl)phenyl)(3-(trifluoromethyl)pyridin-2-yl)methyl)benzamide]  49.2 nM
16. O=C1COc2c(cccc2C(=O)N[C@@H](c2ccc(C(F)(F)F)cc2)c2ncccc2F)N1 [Example 77]  53 nM
17. Cc1ccc(F)c([C@@H](NC(=O)c2ccc(=O)[nH]c2)c2ccc(C(F)(F)F)cc2)n1 [Example 410, (S)-N-((3-fluoro-6-methylpyridin-2-yl)(4-(trifluoromethyl)phenyl)methyl)-6-oxo-1,6-dihydropyridine-3-carboxamide]  71.8 nM
18. O=C(N[C@@H](c1cnc2ccc(Cl)cc2c1)c1ncccc1C(F)(F)F)c1ccc(=O)[nH]c1 [Example 16, (S)-N-((6-chloroquinolin-3-yl)(3-(trifluoromethyl)pyridin-2-yl)methyl)-6-hydroxynicotinamide]  80.7 nM
19. O=C(N[C@@H](c1ccc(C(F)(F)F)cc1)c1ncccc1C(F)(F)F)c1cn[nH]c1 [Example 143, (S)-N-((4-(trifluoromethyl)phenyl)(3-(trifluoromethyl)pyridin-2-yl)methyl)-1H-pyrazole-4-carboxamide]  87.4 nM
20. Cc1ccc([C@H](NC(=O)c2ccc(=O)[nH]c2)c2ncccc2F)cc1F [Example 334, (S)-N-((3-fluoro-4-methylphenyl)(3-fluoropyridin-2-yl)methyl)-6-oxo-1,6-dihydropyridine-3-carboxamide]  103 nM
21. O=C(N[C@@H](c1ccc(C(F)(F)F)cc1)c1ncccc1C(F)(F)F)c1cccc(C(F)(F)F)c1 [Example 211, (S)-3-(trifluoromethyl)-N-((4-(trifluoromethyl)phenyl)(3-(trifluoromethyl)pyridin-2-yl)methyl)benzamide]  115 nM
22. O=C(N[C@@H](c1ccc(C(F)(F)F)cc1)c1ncccc1C(F)(F)F)c1ccc2cccnc2n1 [Example 128, (S)-N-((4-(trifluoromethyl)phenyl)(3-(trifluoromethyl)pyridin-2-yl)methyl)-1,8-naphthyridine-2-carboxamide 2,2,2-trifluoroacetate]  125 nM
23. O=C(N[C@@H](c1ccc(C(F)(F)F)cc1)c1ncccc1F)c1cccnc1 [Example 203, (S)-N-((3-fluoropyridin-2-yl)(4-(trifluoromethyl)phenyl)methyl)nicotinamide]  135 nM
24. CCCN1C(=O)c2ccc(C(=O)N[C@@H](c3ccc(C(F)(F)F)cc3)c3ncccc3C(F)(F)F)cc2C1=O [Example 269, (S)-1,3-Dioxo-2-propyl-N-((4-(trifluoromethyl)phenyl)(3-(trifluoromethyl)pyridin-2-yl)methyl)isoindoline-5-carboxamide]  136 nM
25. O=C(N[C@@H](c1ccc(C(F)(F)F)cc1)c1ncccc1C(F)(F)F)c1ccc(Br)cn1 [Example 205, (S)-5-bromo-N-((4-(trifluoromethyl)phenyl)(3-(trifluoromethyl)pyridin-2-yl)methyl)picolinamide]  140 nM
26. O=C(NC(c1ccc(OC(F)(F)F)c(F)c1)c1cc(F)ccc1F)c1ccc(=O)[nH]c1 (stereo not shown) [Example 414, N-((2,5-difluorophenyl)(3-fluoro-4-(trifluoromethoxy)phenyl)methyl)-6-oxo-1,6-dihydropyridine-3-carboxamide]  150 nM
27. O=C(N[C@@H](c1ccc(C(F)(F)F)cc1)c1ncccc1C(F)(F)F)c1ccc(=O)[nH]n1 [Example 150, (S)-6-oxo-N-((4-(trifluoromethyl)phenyl)(3-(trifluoromethyl)pyridin-2-yl)methyl)-1,6-dihydropyridazine-3-carboxamide]  178 nM
28. Cc1ccc([C@H](NC(=O)c2ccc(=O)n(C)c2)c2ncccc2F)cc1F [Example 335, (S)-N-((3-fluoro-4-methylphenyl)(3-fluoropyridin-2-yl)methyl)-1-methyl-6-oxo-1,6-dihydropyridine-3-carboxamide]  209 nM
29. O=C(N[C@@H](c1ccc(C(F)(F)F)cc1)c1ccccc1Br)c1ccc2ncccc2c1 [Example 256, (S)-N-((2-bromophenyl)(4-(trifluoromethyl)phenyl)methyl)quinoline-6-carboxamide 2,2,2-trifluoro acetate, 2,2,2-trifluoroacetate]  302 nM
30. Cc1cc(C)n2nc(C(=O)N[C@@H](c3ccc(C(F)(F)F)cc3)c3ncccc3C(F)(F)F)cc2n1 [Example 149, (S)-5,7-dimethyl-N-((4-(trifluoromethyl)phenyl)(3-(trifluoromethyl)pyridin-2-yl)methyl)pyrazolo[1,5-a]pyrimidine-2-carboxamide]  398 nM
31. CO[C@@](C(=O)N[C@@H](c1ccc(C(F)(F)F)cc1)c1ncccc1C(F)(F)F)(c1ccccc1)C(F)(F)F [Example 237, 3,3,3-trifluoro-2-methoxy-2-phenyl-N-((S)-(4-(trifluoromethyl)phenyl)(3-(trifluoromethyl)pyridin-2-yl)methyl)propanamide]  733 nM
32. O=C(Cc1c[nH]cn1)N[C@@H](c1ccc(C(F)(F)F)cc1)c1ncccc1C(F)(F)F [Example 158, (S)-2-(1H-imidazol-4-yl)-N-((4-(trifluoromethyl)phenyl)(3-(trifluoromethyl)pyridin-2-yl)methyl)acetamide]  1950 nM
33. O=C1CC(C(=O)N[C@@H](c2ccc(C(F)(F)F)cc2)c2ncccc2C(F)(F)F)CN1 (stereo partly drawn) [Example 163, 5-oxo-N-((S)-(4-(trifluoromethyl)phenyl)(3-(trifluoromethyl)pyridin-2-yl)methyl)pyrrolidine-3-carboxamide]  3180 nM
34. Cn1cc(C(=O)N[C@@H](c2ccc(F)cc2)c2ncccc2F)ccc1=O [Example 341, (S)-N-((4-fluorophenyl)(3-fluoropyridin-2-yl)methyl)-1-methyl-6-oxo-1,6-dihydropyridine-3-carboxamide]  4280 nM
